Assay results from the CheMixHub viscosity set.
Where “and” joins values, the source holds several entries; their conditions need not be identical. Equal values may be shown once.

Assay: xn = mol fraction of the nth substance listed

CCOC(=O)OCC + CC(C)OC(C)C
viscosity [mPa·s], 100 kPa
Conditions	x1 = 0.0986	x1 = 0.1988	x1 = 0.3012	x1 = 0.4026	x1 = 0.4998	x1 = 0.5976	x1 = 0.7008	x1 = 0.8014	x1 = 0.9009
303.15 K	0.325	0.351	0.379	0.409	0.442	0.481	0.528	0.58	0.636
308.15 K	0.309	0.332	0.359	0.387	0.419	0.455	0.497	0.546	0.599
313.15 K	0.296	0.317	0.341	0.369	0.398	0.432	0.472	0.516	0.566

CC(C)[C@@H]1CC[C@@H](C)C[C@H]1O + CC(O)CCO
Conditions	viscosity [mPa·s]
298.15 K, 101.33 kPa, x1 = 0.5	140.3

CC(C)[C@@H]1CC[C@@H](C)C[C@H]1O + CC(O)CO
Conditions	viscosity [mPa·s]
298.15 K, 101.33 kPa, x1 = 0.5	81.72

CCCCCCCCCCO + CCC(C)=O
viscosity [mPa·s], 100 kPa
Conditions	x2 = 0.0798	x2 = 0.1601	x2 = 0.2392	x2 = 0.3498	x2 = 0.4401	x2 = 0.5602	x2 = 0.6496	x2 = 0.7411	x2 = 0.8502	x2 = 0.9406
293.15 K	11.4	8.94	7.3	5.65	4.57	3.24	2.34	1.68	1.01	0.6
303.15 K	7.99	6.34	4.92	3.65	2.75	2	1.52	1.11	0.74	0.49
313.15 K	5.31	4.24	3.39	2.42	1.88	1.39	1.1	0.82	0.58	0.4
323.15 K	3.95	3.23	2.64	1.93	1.52	1.13	0.87	0.66	0.48	0.36

Cc1ccccc1C + CCC(C)O
308.15 K, 101 kPa
Conditions	viscosity [mPa·s]
x2 = 0.0648	0.655
x2 = 0.1275	0.663
x2 = 0.2083	0.681
x2 = 0.3048	0.679
x2 = 0.3787	0.715
x2 = 0.4323	0.742
x2 = 0.5015	0.796
x2 = 0.6005	0.879
x2 = 0.6944	1.048
x2 = 0.7978	1.265
x2 = 0.9485	1.751

OCCOCCOCCO + CCC(C)O
viscosity [mPa·s], 100 kPa
Conditions	x1 = 0.0808	x1 = 0.1599	x1 = 0.2399	x1 = 0.35	x1 = 0.44	x1 = 0.5558	x1 = 0.6502	x1 = 0.7399	x1 = 0.8502	x1 = 0.94
293.15 K	5.57	7.33	9.21	12.23	15.18	19.7	24.16	29.07	36.18	43.08
298.15 K	4.23	5.59	7	9.31	11.53	14.96	18.37	22.16	27.73	33.06
303.15 K	3.68	4.84	6.08	7.92	9.7	12.38	15.03	17.95	22.19	26.32
308.15 K	3.18	4.17	5.17	6.64	7.98	10.05	12.09	14.34	17.76	21
313.15 K	2.58	3.33	4.17	5.42	6.58	8.32	10.01	11.91	14.65	17.26
318.15 K	2.26	3.02	3.79	4.92	5.92	7.37	8.75	10.23	12.32	14.31
323.15 K	1.94	2.54	3.17	4.12	4.97	6.23	7.4	8.65	10.4	11.99

CC(C)[C@@H]1CC[C@@H](C)C[C@H]1O + CCC(O)CO
Conditions	viscosity [mPa·s]
298.15 K, 101.33 kPa, x1 = 0.5	88.2

OCCOCCOCCO + CCCC(C)O
viscosity [mPa·s], 100 kPa
Conditions	x1 = 0.0809	x1 = 0.16	x1 = 0.2401	x1 = 0.35	x1 = 0.44	x1 = 0.5601	x1 = 0.6499	x1 = 0.7401	x1 = 0.8501	x1 = 0.9401
293.15 K	4.98	6.16	7.62	10.23	12.89	17.73	22.03	27.33	34.9	42.55
298.15 K	4.35	5.48	6.71	8.84	10.83	14.35	17.55	21.36	27.16	32.88
303.15 K	3.57	4.56	5.62	7.33	8.95	11.76	14.33	17.37	21.79	26.06
308.15 K	3.03	3.84	4.79	6.2	7.55	9.77	11.78	14.16	17.58	21.01
313.15 K	2.48	3.16	3.93	5.1	6.26	8.19	9.89	11.86	14.62	17.22
318.15 K	2.24	2.86	3.49	4.48	5.4	6.92	8.23	9.81	12.04	14.18
323.15 K	1.94	2.47	3.03	3.87	4.64	5.92	6.99	8.27	10.15	11.91

CCCCCCCCCCO + CCCCCC
viscosity [mPa·s]
Conditions	298.15 K	313.15 K
101 kPa, x1 = 0.1542	0.53	0.436
101 kPa, x1 = 0.2062	0.652	0.522
101 kPa, x1 = 0.2913	0.903	0.696
101 kPa, x1 = 0.4059	1.404	1.025
101 kPa, x1 = 0.5224	2.204	1.524
101 kPa, x1 = 0.604	3.005	2.014
101 kPa, x1 = 0.7085	4.435	2.85
101 kPa, x1 = 0.8065	6.289	3.857
101 kPa, x1 = 0.8728	7.898	4.705
101.3 kPa, x1 = 0.0533	0.372	–
101.3 kPa, x1 = 0.1124	0.458	–
101.3 kPa, x1 = 0.1601	0.545	–
101.3 kPa, x1 = 0.208	0.651	–
101.3 kPa, x1 = 0.2525	0.733	–
101.3 kPa, x1 = 0.3012	0.929	–
101.3 kPa, x1 = 0.4024	1.377	–
101.3 kPa, x1 = 0.5028	2.028	–
101.3 kPa, x1 = 0.6001	2.934	–
101.3 kPa, x1 = 0.7019	4.26	–
101.3 kPa, x1 = 0.7954	5.923	–
101.3 kPa, x1 = 0.8487	7.108	–
101.3 kPa, x1 = 0.9002	8.453	–
101.3 kPa, x1 = 0.9622	10.36	–

Cc1ccc(Cl)cc1 + CCCCCC
viscosity [mPa·s], 100 kPa
Conditions	298.15 K	308.15 K	318.15 K
x1 = 0.0878	0.332	0.307	0.285
x1 = 0.1581	0.352	0.324	0.3
x1 = 0.2446	0.379	0.348	0.322
x1 = 0.2988	0.397	0.364	0.337
x1 = 0.4004	0.435	0.398	0.367
x1 = 0.47	0.466	0.426	0.393
x1 = 0.5234	0.492	0.448	0.412
x1 = 0.572	0.519	0.47	0.429
x1 = 0.622	0.548	0.493	0.449
x1 = 0.681	0.584	0.524	0.475
x1 = 0.7857	0.654	0.584	0.53
x1 = 0.8603	0.707	0.632	0.572
x1 = 0.9366	0.773	0.687	0.618

Cc1ccccc1C + CCCCCC
viscosity [mPa·s], 101.33 kPa
Conditions	x2 = 0.29	x2 = 0.6	x2 = 0.79
293.15 K	0.5875	0.4736	0.3659
313.15 K	0.4679	0.3797	0.3022

CCCCCCCCCCCC + CCCCCCC
Conditions	viscosity
298 K, 101 kPa, x1 = 0.5	0.7879 mPa·s and 0.7868 mPa·s
298.15 K, 101.33 kPa, x2 = 0.1076	1.219 mPa·s
298.15 K, 101.33 kPa, x2 = 0.2092	1.086 mPa·s
298.15 K, 101.33 kPa, x2 = 0.3109	0.9598 mPa·s
298.15 K, 101.33 kPa, x2 = 0.4064	0.8662 mPa·s
298.15 K, 101.33 kPa, x2 = 0.5062	0.7707 mPa·s
298.15 K, 101.33 kPa, x2 = 0.6081	0.6772 mPa·s
298.15 K, 101.33 kPa, x2 = 0.7046	0.5964 mPa·s
298.15 K, 101.33 kPa, x2 = 0.8043	0.5157 mPa·s
298.15 K, 101.33 kPa, x2 = 0.9039	0.4454 mPa·s
318 K, 101 kPa, x1 = 0.5	0.6058 mPa·s and 0.6054 mPa·s
